Each structure is given as a SMILES string. Where a name gives a salt, the structure may show the parent alone. Read-outs that look alike come from different tables or passages of the source.

These results are taken from patent US5272175A, “Substituted tyrosyl diamide compounds” (priority 1992, dated 1993).

In one assay the target is δ opioid receptors (Rattus norvegicus, UniProt P33533). The assay can be described thus: Opiate Binding Assay, displacement of 3[H]-DSLET from δ receptors. The note with it: for Mean IC50 μ/δ Ratio: ratio of mean IC50 values for μ and δ, above 1.0 = more δ specific.
In a further assay the target is μ opioid receptors (Rattus norvegicus, UniProt P33535). Briefly: Opiate Binding Assay, displacement of 3[H]-DAMPGO from μ receptors.
The mark [1] stands for this setting: read-out: Mean IC50 Value, δ, rat forebrain membranes, 3[H]-DSLET 1.0 nM, 37° C., pH 7.4.
[2] abbreviates: read-out: Mean IC50 Value, μ, rat forebrain membranes, 3[H]-DAMPGO 2.0 nM, 37° C., pH 7.4.

δ opioid receptors, sequence (P33533 whole entry): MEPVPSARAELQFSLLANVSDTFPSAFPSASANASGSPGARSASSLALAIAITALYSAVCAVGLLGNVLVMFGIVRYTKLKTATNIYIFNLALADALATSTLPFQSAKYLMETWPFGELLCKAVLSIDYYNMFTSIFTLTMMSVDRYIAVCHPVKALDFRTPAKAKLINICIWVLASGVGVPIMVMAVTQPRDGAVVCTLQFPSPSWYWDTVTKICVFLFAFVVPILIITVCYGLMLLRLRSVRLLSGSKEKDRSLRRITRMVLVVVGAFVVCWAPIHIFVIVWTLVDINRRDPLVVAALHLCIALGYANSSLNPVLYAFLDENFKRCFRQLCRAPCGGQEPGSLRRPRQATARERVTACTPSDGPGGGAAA
μ opioid receptors, sequence (P33535 whole entry): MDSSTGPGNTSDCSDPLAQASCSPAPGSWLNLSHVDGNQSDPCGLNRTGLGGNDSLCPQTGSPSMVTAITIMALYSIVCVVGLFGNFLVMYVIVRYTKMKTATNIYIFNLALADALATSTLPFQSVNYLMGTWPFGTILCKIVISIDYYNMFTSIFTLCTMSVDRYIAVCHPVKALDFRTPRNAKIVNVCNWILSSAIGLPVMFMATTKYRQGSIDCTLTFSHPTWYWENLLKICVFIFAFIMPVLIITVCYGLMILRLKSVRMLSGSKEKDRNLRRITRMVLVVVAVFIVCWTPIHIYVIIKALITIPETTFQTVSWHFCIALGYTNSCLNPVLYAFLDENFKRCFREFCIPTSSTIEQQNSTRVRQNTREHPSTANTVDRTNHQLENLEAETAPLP

As usually defined, the IC50 is the point on the concentration scale where inhibition reaches its midpoint. For the molecule `Cc1cc(O)cc(C)c1C[C@H](NC(=O)OC(C)(C)C)C(=O)NC(C)(C)CN` [Example 4, 1,1-Dimethylethyl[1S-[[(2-amino-1,1-dimethylethyl)amino]carbonyl]-2-(4-hydroxy-2,6-dimethylphenyl)ethyl]carbamate], the “Mean IC50 μ/δ Ratio” value at δ opioid receptors turned out to be 10. For the same molecule, the IC50 stood at 100 nM at δ opioid receptors (setting [1]) and 1000 nM on μ opioid receptors (setting [2]).

Consider `CC(=O)N[C@@H](Cc1ccc(F)cc1)C(=O)NCC(C)(C)NC(=O)[C@@H](N)Cc1c(C)cc(O)cc1C` [Example 6, αS-(Acetylamino)-N-2-[2S-amino-3-(4-hydroxy-2,6-dimethylphenyl) -1-oxopropyl]amino]-2-methyloropyl]-4-fluorobenzenepropanamide, monohydrochloride], for which the IC50 stood at 1.8 nM on δ opioid receptors and 1.1 nM on μ opioid receptors. Besides, the “Mean IC50 μ/δ Ratio” value at δ opioid receptors was determined as 0.6.

As for `Cc1cc(O)cc(C)c1C[C@H](N)C(=O)NC(C)(C)CNC(=O)[C@H](Cc1ccc(F)cc1)NC(=O)OCc1ccccc1` [Example 8, Phenylmethyl[1S-[[[2-[[2S-amino-3-(4-hydroxy-2,6-dimethylohenyl)-1-oxopropyllamino]-methylpropyl]amino]-carbonyl]-2-(4-fluorophenyl)ethyl]carbamate. monohydrochloride], the IC50 is 28 nM on δ opioid receptors and < 10 nM on μ opioid receptors.

In the case of `Cc1cc(O)cc(C)c1C[C@H](NC(=O)OC(C)(C)C)C(=O)NC(C)(C)CNC(=O)[C@@H](N)Cc1ccccc1` [Example 11, acetic acid salt], on δ opioid receptors, the IC50 is 100 nM and the “Mean IC50 μ/δ Ratio” value worked out at 10. This molecule also showed an IC50 on μ opioid receptors of 1000 nM.

Consider `Cc1cc(O)cc(C)c1C[C@H](N)C(=O)NC(C)(C)CNC(=O)[C@@H](N)Cc1ccccc1` [Example 12, αS-amino-N-[2-[2S-amino-3-(4-hydroxy-2,6-dimethylphenyl) -1-oxopropyl]amino]-2-methylpropyl]benzenepropanamide, dihydrochloride], for which, at δ opioid receptors, the IC50 amounted to 31.4 nM and the “Mean IC50 μ/δ Ratio” value is 0.1. Besides, the IC50 at μ opioid receptors amounted to 3.4 nM.

With `Cc1cc(O)cc(C)c1C[C@H](N)C(=O)NC(C)(C)CNC(=O)[C@H](Cc1ccccc1)NC(=O)C(F)(F)F` [Example 14, αS-Amino-N-[1,1-dimethyl-2-[[1-oxo-3-phenyl-2S-[[trifluoroacetyl-amino]propyl]aminoethyl]-4-hydroxy-2,6-dimethylbenzenepropanamide, hydrochloride], at δ opioid receptors, the IC50 amounted to 0.64 nM and the “Mean IC50 μ/δ Ratio” value is given as 0.8. The IC50 on μ opioid receptors worked out at 0.54 nM.

For the molecule `CC(=O)N[C@H](C(=O)NCC(C)(C)NC(=O)[C@@H](N)Cc1c(C)cc(O)cc1C)c1ccccc1` [Example 20, N-[2-[[2S-(acetylamino)-2-phenylacetyl]amino]-1,1-dimethylethyl]-αS-amino-4-hydroxy-2,6-dimethylbenzenepropanamide, hydrochloride], the IC50 on δ opioid receptors is 19.3 nM; on μ opioid receptors, 1.2 nM. The “Mean IC50 μ/δ Ratio” value on δ opioid receptors is 0.06.

Regarding `Cc1cc(O)cc(C)c1C[C@H](N)C(=O)NCCNC(=O)[C@H](Cc1ccccc1)NC(=O)OCc1ccccc1` [Example 22, Phenylmethyl[1S-[[(2-(8 [2S-amino-3-[4-hydroxy-2,6-dimethylphenyl) -1-oxopropyl]ethylaminocarbonyl-2-phenylethylcarbamate, monohydrochloride], at δ opioid receptors, the IC50 was found to be 3.1 nM and the “Mean IC50 μ/δ Ratio” value is on record as 0.8. The IC50 on μ opioid receptors turned out to be 2.6 nM.

For `Cc1cc(O)cc(C)c1C[C@H](NC(=O)OC(C)(C)C)C(=O)NCCNC(=O)[C@@H](N)Cc1ccccc1` [Example 23, 1,1-dimethylethyl[1S-[[[2-[[(2S-amino-l-oxo-3-phenylpropyl)amino]ethyl]amino]carbonyl]-2-(4-hydroxy-2,6-dimethylohenyl)ethyl]carbamate, acetate (salt)], at δ opioid receptors, the IC50 amounted to 100 nM and the “Mean IC50 μ/δ Ratio” value worked out at 10. At μ opioid receptors, this molecule registered an IC50 of 1000 nM.

For the molecule `Cc1cc(O)cc(C)c1C[C@H](N)C(=O)NCCNC(=O)[C@@H](N)Cc1ccccc1` [Example 24, αS-amino-N-[2-[[2S-amino-3-(4-hydroxy-2,6-dimethylphenyl) -1-oxopropyl]amino]ethyl]benzenepropanamide, dihydrochloride], the IC50 on δ opioid receptors is 562 nM; on μ opioid receptors it was 3.7 nM. The “Mean IC50 μ/δ Ratio” value at δ opioid receptors was 0.01.

For the molecule `Cc1cc(O)cc(C)c1C[C@H](N)C(=O)NCC(C)(C)NC(=O)[C@H](Cc1ccccc1)NC(=O)OCc1ccccc1` [Example 26, Phenylmethyl[1S-[[[2-[[2S-amino-3-(4-hydroxy-2,6-dimethylphenyl)-1-oxopropyl]amino]-1,1-dimethylethyl1-amino]carbonyl]-2-phenylethyl]carbamate, monohydrochloride], the IC50 turned out to be 29.8 nM on δ opioid receptors and 19 nM at μ opioid receptors. The “Mean IC50 μ/δ Ratio” value on δ opioid receptors was found to be 0.6.

With `C=CCNC(=O)N[C@@H](Cc1ccccc1)C(=O)NCC(C)(C)NC(=O)[C@@H](N)Cc1c(C)cc(O)cc1C` [Example 28, αS-amino-N-[1,1-dimethyl-2-[1-oxo-3-phenyl-2S-[(2-propenylamino)carbonyl]amino]propyl]amino]ethyl]-4-hydroxy-2,6-dimethylbenzenepropanamide, monohydrochloride], the IC50 was ~2 nM at δ opioid receptors and < 10 nM at μ opioid receptors.

On to `Cc1cc(O)c(C)c(C)c1C[C@H](N)C(=O)NC(C)(C)CNC(=O)[C@H](Cc1ccccc1)NC(=O)OCc1ccccc1` [Example 30, Phenylmethyl[1S[[[2-[[2S-amino-3-(4-hydroxy-2,3,6-trimethylphenyl)-1-oxopropyl]amino]-2-methylpropyl]amino]carbonyl]-2-phenylethyl]carbamate, hydrochloride], for which the IC50 was 100 nM at δ opioid receptors and < 10 nM on μ opioid receptors.

`Cc1cc(O)c(C)c(C)c1C[C@@H](N)C(=O)NC(C)(C)CNC(=O)[C@H](Cc1ccccc1)NC(=O)OCc1ccccc1` [Example 31, Phenylmethyl[1S[[[2-[[2R-amino-3-(4-hydroxy-2,3,6-trimethylphenyl) -1-oxopropyl]amino]-2-methylpropyl]amino]carbonyl1-2-phenylethyl]carbamate, hydrochloride]: the IC50 is > 100 nM on δ opioid receptors and 100 nM at μ opioid receptors.

Consider `Cc1cc(O)cc(C)c1C[C@H](N)C(=O)NC(C)(C)CNC(=O)[C@H](Cc1ccccc1)NC(=O)NCc1ccccc1` [Example 33, αS-amino-N-[1,1-dimethyl-2-[[1-oxo-3-phenyl-2S-[[[(phenylmethyl)amino]carbonyl]amino]propyl]-amino]ethyl]-4-hydroxy-2,6-dimethylbenzeneprooanamide, hydrochloride], for which the IC50 at δ opioid receptors is ~2 nM; at μ opioid receptors, < 10 nM.

`CCOC(=O)CNC(=O)N[C@@H](Cc1ccccc1)C(=O)NCC(C)(C)NC(=O)[C@@H](N)Cc1c(C)cc(O)cc1C` [Example 35, hydrochloride]: the IC50 on δ opioid receptors (setting [1]) is ~2 nM; on μ opioid receptors (setting [2]), < 10 nM.

`CC(=O)N[C@@H](Cc1ccccc1)C(=O)NC(C)(C)CNC(=O)[C@@H](N)Cc1c(C)cc(O)cc1C` [Example 39, αS-(Acetylamino)-N-[2-[[2S-amino-3-(4-hydroxy-2,6-dimethylphenyl)-1-oxopropyl]amino]-1,1-dimethylethyl]-benzenepropanamide, monohydrochloride]: on δ opioid receptors, the IC50 came out at 7.8 nM and the “Mean IC50 μ/δ Ratio” value amounted to 0.6. The IC50 at μ opioid receptors came to 4.7 nM.

For `CC(=O)N[C@@H](Cc1ccccc1)C(=O)NCC(C)(C)NC(=O)[C@H](N)Cc1c(C)cc(O)c(C)c1C` [Example 41, αS-(acetylamino)-N-[2-[[2R-amino-3-(4-hydroxy-2,3,6-trimethylphenyl) -1-oxopropyl]amino]-2-methylpropyl]benzenepropanamide, monohydrochloride], the half-maximal inhibitory concentration (IC50) at δ opioid receptors amounted to 257 nM; at μ opioid receptors, 122 nM. The “Mean IC50 μ/δ Ratio” value on δ opioid receptors came out at 0.5.

On to `Cc1cc(O)cc(C)c1C[C@H](N)C(=O)N[C@H](C)CNC(=O)[C@H](Cc1ccccc1)NC(=O)OCc1ccccc1` [Example 46, Phenylmethyl[1S[[[2R-[[2S-amino-3-(4-hydroxy-2,6-dimethylphenyl) -1-oxopropyl]amino]propylamino]carbonyl]-2-phenylethyllcarbamate, hydrochloride], for which, at δ opioid receptors, the IC50 came out at 4.2 nM and the “Mean IC50 μ/δ Ratio” value is listed as 0.2. The molecule also registered an IC50 on μ opioid receptors of 0.88 nM.

Regarding `CC(=O)N[C@@H](Cc1ccccc1)C(=O)NCCNC(=O)[C@@H](N)Cc1c(C)cc(O)cc1C` [Example 48, αS-(Acetylamino)-N-[(2-[[2S-amino-3-(4-hydroxy-2,6-dimethylphenyl)-1-oxopropyl]aminoethyl]benzenepropanamide, hydrochloride], at δ opioid receptors, the IC50 amounted to 2.9 nM and the “Mean IC50 μ/δ Ratio” value turned out to be 0.1. Moreover, the IC50 at μ opioid receptors is 0.3 nM.

Regarding `CC(=O)N[C@@H](Cc1c(C)cccc1C)C(=O)NCCNC(=O)[C@@H](N)Cc1ccc(O)cc1` [Example 51, αS-(Acetylamino)-N-[2-[[2S-amino-3-(4-hydroxyphenyl)-1-oxopropyl]amino]ethyl]-2,6-dimethylbenzenepropanamide. hydrochloride], the IC50 at δ opioid receptors was > 50 nM.

Regarding `CC(=O)N[C@@H](Cc1ccccc1)C(=O)N1CCN(C(=O)[C@@H](N)Cc2c(C)cc(O)cc2C)CC1` [Example 54, N-[1S-[[4-[2-S-Amino-3-(4-hydroxy-2,6-dimethylphenyl)-1-oxopropyl]-1-piperazinyl]carbonyl]-2-phenylethyl]acetamide, monohydrochloride], the IC50 turned out to be 88.8 nM on δ opioid receptors and 3.3 nM at μ opioid receptors. Also, at δ opioid receptors, the “Mean IC50 μ/δ Ratio” value was 0.04.

On δ opioid receptors, `CC(=O)N[C@@H](Cc1ccccc1)C(=O)Nc1cccc(NC(=O)[C@@H](N)Cc2c(C)cc(O)cc2C)c1` [Example 57, αS-(Acetylamino)-N-[3[[[2S-amino-3-[4-hydroxy-2,6-dimethylphenyl]-1-oxopropylamino]phenyl]benzenepropanamide, hydrochloride] came in with an IC50 of 100 nM.
